Results from patent publication US6962931B2, “Self-emulsifying formulations of cholesteryl ester transfer protein inhibitors” (Pfizer Inc., priority 2001, dated 2005).
Like-named read-outs stand apart in the source and are kept apart here.

Columns and labels:
[1] = Microsolubility estimate by repeated addition of vehicle; format: physicochemical; conditions: thermodynamic from solid, read-out: Microsolubility
Description: (§1) For CETP inhibitors where quantities were limited, an estimate of solubility was obtained by addition of vehicle to a known quantity of the compound and mixing in an ultrasonicator bath for 90 minutes, followed by overnight equilibration at ambient temperature. Addition of vehicle was repeated until a solution was achieved.
as §1, with “limited or the samples were amorphous solids,” for “limited,”, “achieved. From the total volume of vehicle added to solubilize the CETP inhibitor compound, the solubility value, or so-called microsolubility, was calculated by the equation: Weight of sample (mgA)/vehicle volume (mL)=Microsolubility (mgA/mL)” for “achieved.”

[2] = Emulsion from oil solution plus equal volume of water: particle size and stability; format: physicochemical
Description: An emulsion was prepared by combining 1 volume of oil solution with an equal volume of de-ionized water. […] The emulsion is then stirred continuously to maintain homogeneity.
An emulsion was prepared by combining 1 volume of oil solution with an equal volume of de-ionized water. This mixture was stirred for 10 minutes and then vortex mixed for 2 minutes. […] It was stirred continuously to maintain homogeneity.
An emulsion was prepared by combining combining 1 volume of oil solution with an equal volume of de-ionized water. This mixture was stirred for 10 minutes and then vortex mixed for 2 minutes. […] It was stirred continuously to maintain homogeneity.

PK in monkeys = format: in vivo, cynomologous monkeys
Text: Use of an emulsion prepared from crystalline (ethanolate) drug allowed comparible exposures to be achieved to those for more soluble amorphous drug in Miglyol® alone. Excellent dose proportionality was also obtained.

[3] = Equilibrium solubility in excipients, vehicles and emulsion preconcentrates; format: physicochemical; conditions: equilibrium
Description: The solubility of CETP inhibitors in excipients and in formulations was determined by adding an excess of compound to the medium in question. The mixture was agitated by rotation over a period of days at ambient temperature until the concentration in solution had reached an equilibrium as judged by similar measurements for consecutive time points. Concentrations were measured by filtration of aliquots with a PTFE syringe filter and assay by HPLC as described in Example 11.
The solubility of crystalline CETP inhibitors in representative vehicles was determined by adding an excess of compound to the vehicle in question. The mixture was agitated by rotation over a period of days at ambient temperature until the concentration in solution had reached equilibrium as judged by similar measurements for consecutive time points. Concentrations were measured by filtration of aliquots with a PTFE syringe filter and assayed by HPLC.
The concentrations of CETP inhibitor in each vehicle were assayed at intervals by dilution of aliquots into acetonitrile and gradient HPLC analysis on a Water Symmetry C-8 column (3.9×150 mm, 5 micron) at 30° C. at a flow rate of 1 mL/min. […] The detection method was UV absorbance at 210 nm.

- Solubility ([1]; Capmul MCM, oil or lipid): > 300 mg/mL
- Solubility ([1]; Cotton oil, oil or lipid): < 75 mg/mL
- Solubility ([1]; Crodamol GTCC, oil or lipid): < 75 mg/mL
- Solubility ([1]; Glycerin, organic solvent or mixture): < 75 mg/mL
- Solubility ([1]; Incromega TG2671, oil or lipid): < 75 mg/mL
- Solubility ([1]; Linoleic acid, oil or lipid): < 60 mg/mL
- Solubility ([1]; Miglyol 810, oil or lipid): < 100 mg/mL
- Solubility ([1]; Miglyol 812, oil or lipid): > 300 mg/mL
- Solubility ([1]; Olive oil, oil or lipid): > 300 mg/mL
- Solubility ([1]; Safflower oil, oil or lipid): > 300 mg/mL
- Solubility ([1]; mineral oil, oil or lipid): < 75 mg/mL
- Solubility ([1]; oil or lipid): < 75 mg/mL
- Solubility ([1]; propylene glycol, organic solvent or mixture): < 75 mg/mL
- average particle size of emulsion ([2]; Example 17 oil solution (Miglyol 812/propylene carbonate/Cremophor EL, 115 mg/g) plus equal volume water): less than 10 microns
- average particle size of emulsion ([2]; Example 18 oil solution (olive oil/Cremophor EL, 13 mg/g) plus equal volume water): less than 10 microns
- Cmax (PK in monkeys; crystalline ethanolate, Olive oil/Cremophor/water 40/10/50, 20 mg/kg, 20 mg/kg): 160 ng/mL
- Cmax (PK in monkeys; monkey, in vivo, oral, 20 mg/kg, crystalline ethanolate, Olive oil/Cremophor/water 40/10/50, 20 mg/kg, read-out: Cmax): 100 ng/mL
- AUC (PK in monkeys; monkey, in vivo, oral, 50 mg/kg, crystalline ethanolate, Miglyol/Cremophor/water 40/10/50, 50 mg/kg (BID)): 13000 to 15000 ng·h/mL
- Cmax (PK in monkeys; monkey, in vivo, oral, 50 mg/kg, crystalline ethanolate, Miglyol/Cremophor/water 40/10/50, 50 mg/kg (BID), read-out: Cmax): 800 to 1100 ng/mL
- AUC (PK in monkeys; monkey, in vivo, oral, 100 mg/kg, amorphous anhydrous, Miglyol): ~29000 ng·h/mL
- Cmax (PK in monkeys; monkey, in vivo, oral, 100 mg/kg, amorphous anhydrous, Miglyol, 100 mg/kg, read-out: Cmax): ~1600 ng/mL
- Cmax (PK in monkeys; monkey, in vivo, oral, 100 mg/kg, crystalline ethanolate, Miglyol, 100 mg/kg, read-out: Cmax): ~170 ng/mL
- AUC (PK in monkeys; monkey, in vivo, oral, 100 mg/kg, crystalline ethanolate, Miglyol/Cremophor/water 40/10/50, 100 mg/kg (BID)): 24000 to 29000 ng·h/mL
- Cmax (PK in monkeys; monkey, in vivo, oral, 100 mg/kg, crystalline ethanolate, Miglyol/Cremophor/water 40/10/50, 100 mg/kg (BID), read-out: Cmax): 1600 to 2300 ng/mL
- Cmax (PK in monkeys; monkey, in vivo, oral, 100 mg/kg, crystalline ethanolate, Miglyol/Cremophor/water 40/10/50, 100 mg/kg, read-out: Cmax): 400 to 1800 ng/mL
- Solubility ([3]; ambient temperature, vehicle Water): <0.00004 mgA/ml
- Solubility ([3]; Miglyol 812/EtOH/Cremophor EL (76/4/20)): 89 mgA/ml
- Solubility ([3]; Miglyol 812/Ethyl lactate/Cremophor EL 30/50/20): 256 mgA/ml
- Solubility ([3]; Miglyol 812/Ethyl lactate/Cremophor EL 40/40/20): 221 mgA/ml
- Solubility ([3]; Miglyol 812/Ethyl lactate/Cremophor EL 50/30/20): 196 mgA/ml
- Solubility ([3]; Miglyol 812/Ethyl lactate/Cremophor EL 60/20/20): 143 mgA/ml
- Solubility ([3]; Miglyol 812/Ethyl lactate/Cremophor EL 65/15/20): 120 mgA/ml
- Solubility ([3]; Miglyol 812/Ethyl lactate/Cremophor EL 70/10/20): 99 mgA/ml
- Solubility ([3]; Miglyol 812/Ethyl lactate/Cremophor EL 72/8/20): 94 mgA/ml
- Solubility ([3]; Miglyol 812/Ethyl lactate/Labrasol (72/8/20)): 98 mgA/ml
- Solubility ([3]; Miglyol 812/Ethyl lactate/Tagat TO (72/8/20)): 87 mgA/ml
- Solubility ([3]; Miglyol 812/Peppermint Oil/Cremophor EL (72/8/20)): 72 mgA/ml
- Solubility ([3]; Miglyol 812/Propylene carbonate/Cremophor EL 30/50/20): 228 mgA/ml
- Solubility ([3]; Miglyol 812/Propylene carbonate/Cremophor EL 40/40/20): 209 mgA/ml
- Solubility ([3]; Miglyol 812/Propylene carbonate/Cremophor EL 55/25/20): 158 mgA/ml
- Solubility ([3]; Miglyol 812/Propylene carbonate/Cremophor EL 72/8/20): 108 mgA/ml
- Solubility ([3]; Miglyol 812/Propylene carbonate/Labrasol (72/8/20)): 116 mgA/ml
- Solubility ([3]; Miglyol 812/Propylene carbonate/Tagat TO (72/8/20)): 111 mgA/ml
- Solubility ([3]; Miglyol 812/Triacetin/Cremophor EL 30/50/20): 198 mgA/ml
- Solubility ([3]; Miglyol 812/Triacetin/Cremophor EL 40/40/20): 183 mgA/ml
- Solubility ([3]; Miglyol 812/Triacetin/Cremophor EL 50/30/20): 158 mgA/ml
- Solubility ([3]; Miglyol 812/Triacetin/Cremophor EL 60/20/20): 133 mgA/ml
- Solubility ([3]; Miglyol 812/Triacetin/Cremophor EL 65/15/20): 111 mgA/ml
- Solubility ([3]; Miglyol 812/Triacetin/Cremophor EL 72/8/20): 94 mgA/ml
- Solubility ([3]; vehicle Capmul MCM): 41 mgA/ml
- Solubility ([3]; vehicle Cremophor EL): 20 mgA/ml
- Solubility ([3]; vehicle Dimethylisosorbide): 439 mgA/ml
- Solubility ([3]; vehicle Ethyl lactate): 400 mgA/ml
- Solubility ([3]; vehicle Glycofurol): 99 mgA/ml
- Solubility ([3]; vehicle Labrafil M 1944): 26 mgA/ml
- Solubility ([3]; vehicle Labrafil M 2125): 27 mgA/ml
- Solubility ([3]; vehicle Labrasol): 41 mgA/ml
- Solubility ([3]; vehicle Lauroglycol FCC): 70 mgA/ml
- Solubility ([3]; vehicle Maisine 35-1): 9 mgA/ml
- Solubility ([3]; vehicle Miglyol 812): 65 mgA/ml
- Solubility ([3]; vehicle Miglyol 812/Capmul MCM (80/20)): 74 mgA/ml
- Solubility ([3]; vehicle Miglyol 812/Capmul MCM/Polysorbate 80 (20/60/20)): 63 mgA/ml
- Solubility ([3]; vehicle Miglyol 812/Capmul MCM/Polysorbate 80 (40/40/20)): 58 mgA/ml
- Solubility ([3]; vehicle Miglyol 812/Cremophor EL 80/20): 68 mgA/ml
- Solubility ([3]; vehicle Miglyol 812/Labrafil M 1944 (80/20)): 59 mgA/ml
- Solubility ([3]; vehicle Miglyol 812/Labrafil M 2125 (80/20)): 57 mgA/ml
- Solubility ([3]; vehicle Miglyol 812/Labrasol (80/20)): 69 mgA/ml
- Solubility ([3]; vehicle Miglyol 812/Peppermint oil (80/20)): 93 mgA/ml
- Solubility ([3]; vehicle Miglyol 812/Peppermint oil (90/10)): 79 mgA/ml
- Solubility ([3]; vehicle Miglyol 812/Tagat TO (80/20)): 58 mgA/ml
- Solubility ([3]; vehicle Miglyol 812/propylene carbonate/Cremophor EL (60/20/20)): 146 mgA/ml
- Solubility ([3]; vehicle Miglyol 812/triacetin (90/10), not completely miscible): 106 mgA/ml
- Solubility ([3]; vehicle N-methyl-2-pyrrolidone): 813 mgA/ml
- Solubility ([3]; vehicle Oleic acid): 8.5 mgA/ml
- Solubility ([3]; vehicle Olive oil): 17 mgA/ml
- Solubility ([3]; vehicle Olive oil/Capmul MCM (80/20)): 23 mgA/ml
- Solubility ([3]; vehicle Olive oil/Peppermint oil (90/10)): 25 mgA/ml
- Solubility ([3]; vehicle Peceol): 10 mgA/ml
- Solubility ([3]; vehicle Plurol Oleique CC 497): 17 mgA/ml
- Solubility ([3]; vehicle Pluronic L-44): 36 mgA/ml
- Solubility ([3]; vehicle Polysorbate 80 (Tween 80)): 23 mgA/ml
- Solubility ([3]; vehicle Propylene carbonate): 227 mgA/ml
- Solubility ([3]; vehicle Tagat TO (Polyoxyethylene glycerol trioleate)): 32 mgA/ml
- Solubility ([3]; vehicle Transcutol P): 174 mgA/ml
- Solubility ([3]; vehicle Triacetin): 235 mgA/ml
- Solubility ([3]; vehicle Triethyl citrate): 240 mgA/ml
- Solubility ([3]; vehicle peppermint oil): 266 mgA/ml
SMILES: CCOC(=O)N1c2ccc(C(F)(F)F)cc2[C@@H](N(Cc2cc(C(F)(F)F)cc(C(F)(F)F)c2)C(=O)OC)C[C@H]1CC [Compound A, [2R,4S] 4-[(3,5-bis-trifluoromethyl-benzyl)-methoxycarbonyl-amino]-2-ethyl-6-trifluoromethyl-3,4-dihydro-2H-quinoline-1-carboxylic acid ethyl ester]
- chemical degradation or crystallization ([2]; Example 17 oil after storage for 8 days or emulsion after 24 hr): No chemical degradation based on HPLC analysis or crystallization based on microscopic examination was detected
- chemical degradation or crystallization ([2]; Example 18 oil after storage for 8 days or emulsion after 24 hr): No chemical degradation based on HPLC analysis or crystallization based on microscopic examination was detected
